Species on record: Rattus norvegicus
Test: DrugMatrix - Regimen: Daily Repeat
Format: toxicity, organism-based, Sprague-Dawley
Parameters: regimen Daily Repeat, gender Male, age 6-8 weeks
Settings: in vivo, po, route oral GAVAGE, vehicle .5 % CMC; for ABSOLUTE BASOPHIL / ABSOLUTE EOSINOPHIL / ABSOLUTE LYMPHOCYTE / ABSOLUTE MONOCYTE / ABSOLUTE SEGMENTED NEUTROPHIL / BASOPHIL / EOSINOPHIL / HEMATOCRIT / HEMOGLOBIN / LEUKOCYTE COUNT / LYMPHOCYTE / MEAN CORPUSCULAR HEMOGLOBIN / MEAN CORPUSCULAR HEMOGLOBIN CONCENTRATION / MEAN CORPUSCULAR VOLUME / MONOCYTE / NEUTROPHIL / NUCLEATED RED BLOOD CELLS / PLATELET COUNT: tissue Blood; for ALANINE AMINOTRANSFERASE / ALBUMIN / ALKALINE PHOSPHATASE / ASPARTATE AMINOTRANSFERASE / BLOOD UREA NITROGEN / CARBON DIOXIDE / CHLORIDE / CHOLESTEROL / CREATINE PHOSPHOKINASE / CREATININE / GLUCOSE / LACTATE DEHYDROGENASE / LIPASE / PHOSPHORUS / POTASSIUM / SODIUM / TOTAL BILIRUBIN / TOTAL PROTEIN / URIC ACID: tissue Plasma
[1] = 150 mg/kg, 72 h, dose level Low, time 3 day
[2] = 150 mg/kg, 120 h, dose level Low, time 5 day
[3] = 1500 mg/kg, 72 h, dose level High, time 3 day
[4] = 1500 mg/kg, 120 h, dose level High, time 5 day

In the case of `CC(C)(C)NCC(O)COc1cccc2c1CC(O)C(O)C2` (stereo not drawn) [NADOLOL], the “ABSOLUTE BASOPHIL” value [1] is reported as 0 CELLS/uL, the “ABSOLUTE EOSINOPHIL” value [1] is reported as 43.33 CELLS/uL and the “ABSOLUTE LYMPHOCYTE” value [1] is reported as 11948.67 CELLS/uL. The “ABSOLUTE MONOCYTE” value [1] was 0 CELLS/uL, the “ABSOLUTE SEGMENTED NEUTROPHIL” value [1] was 1241.33 CELLS/uL and the BASOPHIL [1] was 0%. It also gave an EOSINOPHIL [1] of 0.33%, an HEMATOCRIT [1] of 34.8% and an HEMOGLOBIN [1] of 13.13 G/DL. The “LEUKOCYTE COUNT” value [1] was 13.23 x10E3/uL, the LYMPHOCYTE [1] was 90.33% and the “MEAN CORPUSCULAR HEMOGLOBIN” value [1] was 24.5 pg. The “MEAN CORPUSCULAR HEMOGLOBIN CONCENTRATION” value [1] was 37.73 G/DL, the “MEAN CORPUSCULAR VOLUME” value [1] was 64.87 fL and the MONOCYTE [1] was 0%. The NEUTROPHIL [1] was 9.33%, the “NUCLEATED RED BLOOD CELLS” value [1] was 0 /100WBC and the “PLATELET COUNT” value [1] was 1238.33 x10E3/uL. For the same molecule, the “ALANINE AMINOTRANSFERASE” value [1] was 44 u/L, the ALBUMIN [1] was 4.17 G/DL and the “ALKALINE PHOSPHATASE” value [1] was 391.33 u/L. For the same molecule, the “ASPARTATE AMINOTRANSFERASE” value [1] was 75.33 u/L, the “BLOOD UREA NITROGEN” value [1] was 17 mg/dL and the “CARBON DIOXIDE” value [1] was 24.67 mmol/L. The CHLORIDE [1] was 104 MEQ/L, the CHOLESTEROL [1] was 82.33 mg/dL and the “CREATINE PHOSPHOKINASE” value [1] was 224 u/L. For the same molecule, the CREATININE [1] was 0.22 mg/dL, the GLUCOSE [1] was 176.33 mg/dL and the “LACTATE DEHYDROGENASE” value [1] was 97 u/L. It also gave an LIPASE [1] of 8 u/L, a PHOSPHORUS [1] of 14.9 mg/dL and a POTASSIUM [1] of 6.65 MEQ/L. The SODIUM [1] was 146.1 MEQ/L, the “TOTAL BILIRUBIN” value [1] was 0.23 mg/dL and the “TOTAL PROTEIN” value [1] was 6.1 G/DL. The “URIC ACID” value [1] was 2 mg/dL, the “ABSOLUTE BASOPHIL” value [2] was 0 CELLS/uL and the “ABSOLUTE EOSINOPHIL” value [2] was 50.33 CELLS/uL. The “ABSOLUTE LYMPHOCYTE” value [2] was 8337.33 CELLS/uL, the “ABSOLUTE MONOCYTE” value [2] was 0 CELLS/uL and the “ABSOLUTE SEGMENTED NEUTROPHIL” value [2] was 679 CELLS/uL. The BASOPHIL [2] was 0%, the EOSINOPHIL [2] was 0.67% and the HEMATOCRIT [2] was 35.83%. For the same molecule, the HEMOGLOBIN [2] was 13.37 G/DL, the “LEUKOCYTE COUNT” value [2] was 9.07 x10E3/uL and the LYMPHOCYTE [2] was 91.67%. The “MEAN CORPUSCULAR HEMOGLOBIN” value [2] was 24.27 pg, the “MEAN CORPUSCULAR HEMOGLOBIN CONCENTRATION” value [2] was 37.37 G/DL and the “MEAN CORPUSCULAR VOLUME” value [2] was 64.93 fL. For the same molecule, the MONOCYTE [2] was 0%, the NEUTROPHIL [2] was 7.67% and the “NUCLEATED RED BLOOD CELLS” value [2] was 0 /100WBC. The “PLATELET COUNT” value [2] was 1254.33 x10E3/uL, the “ALANINE AMINOTRANSFERASE” value [2] was 46.33 u/L and the ALBUMIN [2] was 4.17 G/DL. For the same molecule, the “ALKALINE PHOSPHATASE” value [2] was 380.67 u/L, the “ASPARTATE AMINOTRANSFERASE” value [2] was 77.67 u/L and the “BLOOD UREA NITROGEN” value [2] was 14.67 mg/dL. For the same molecule, the “CARBON DIOXIDE” value [2] was 29.67 mmol/L, the CHLORIDE [2] was 101 MEQ/L and the CHOLESTEROL [2] was 84.67 mg/dL. For the same molecule, the “CREATINE PHOSPHOKINASE” value [2] was 179 u/L, the CREATININE [2] was 0.19 mg/dL and the GLUCOSE [2] was 140.33 mg/dL. For the same molecule, the “LACTATE DEHYDROGENASE” value [2] was 101 u/L, the LIPASE [2] was 8.67 u/L and the PHOSPHORUS [2] was 10.8 mg/dL. The POTASSIUM [2] was 6.14 MEQ/L, the SODIUM [2] was 147.83 MEQ/L and the “TOTAL BILIRUBIN” value [2] was 0.27 mg/dL. For the same molecule, the “TOTAL PROTEIN” value [2] was 5.93 G/DL, the “URIC ACID” value [2] was 0.8 mg/dL and the “ABSOLUTE BASOPHIL” value [3] was 0 CELLS/uL. The “ABSOLUTE EOSINOPHIL” value [3] was 179 CELLS/uL, the “ABSOLUTE LYMPHOCYTE” value [3] was 10744.33 CELLS/uL and the “ABSOLUTE MONOCYTE” value [3] was 0 CELLS/uL. The “ABSOLUTE SEGMENTED NEUTROPHIL” value [3] was 1443.33 CELLS/uL, the BASOPHIL [3] was 0% and the EOSINOPHIL [3] was 1.33%. The HEMATOCRIT [3] was 32.37%, the HEMOGLOBIN [3] was 12.3 G/DL and the “LEUKOCYTE COUNT” value [3] was 12.37 x10E3/uL. The LYMPHOCYTE [3] was 87.67%, the “MEAN CORPUSCULAR HEMOGLOBIN” value [3] was 24.6 pg and the “MEAN CORPUSCULAR HEMOGLOBIN CONCENTRATION” value [3] was 38 G/DL. For the same molecule, the “MEAN CORPUSCULAR VOLUME” value [3] was 64.77 fL, the MONOCYTE [3] was 0% and the NEUTROPHIL [3] was 11%. For the same molecule, the “NUCLEATED RED BLOOD CELLS” value [3] was 0 /100WBC, the “PLATELET COUNT” value [3] was 1241.33 x10E3/uL and the “ALANINE AMINOTRANSFERASE” value [3] was 51.33 u/L. For the same molecule, the ALBUMIN [3] was 3.9 G/DL, the “ALKALINE PHOSPHATASE” value [3] was 378.33 u/L and the “ASPARTATE AMINOTRANSFERASE” value [3] was 79.33 u/L. The “BLOOD UREA NITROGEN” value [3] was 16 mg/dL, the “CARBON DIOXIDE” value [3] was 24.67 mmol/L and the CHLORIDE [3] was 109.33 MEQ/L. For the same molecule, the CHOLESTEROL [3] was 85 mg/dL, the “CREATINE PHOSPHOKINASE” value [3] was 126 u/L and the CREATININE [3] was 0.15 mg/dL. The GLUCOSE [3] was 170 mg/dL, the “LACTATE DEHYDROGENASE” value [3] was 86.33 u/L and the LIPASE [3] was 8 u/L. It also gave a PHOSPHORUS [3] of 14.57 mg/dL, a POTASSIUM [3] of 7.08 MEQ/L and an SODIUM [3] of 148.37 MEQ/L. The “TOTAL BILIRUBIN” value [3] was 0.17 mg/dL, the “TOTAL PROTEIN” value [3] was 5.63 G/DL and the “URIC ACID” value [3] was 2.2 mg/dL. For the same molecule, the “ABSOLUTE BASOPHIL” value [4] was 0 CELLS/uL, the “ABSOLUTE EOSINOPHIL” value [4] was 191.67 CELLS/uL and the “ABSOLUTE LYMPHOCYTE” value [4] was 13307.33 CELLS/uL. The “ABSOLUTE MONOCYTE” value [4] was 0 CELLS/uL, the “ABSOLUTE SEGMENTED NEUTROPHIL” value [4] was 867.67 CELLS/uL and the BASOPHIL [4] was 0%. The EOSINOPHIL [4] was 1.33%, the HEMATOCRIT [4] was 33.3% and the HEMOGLOBIN [4] was 12.53 G/DL. For the same molecule, the “LEUKOCYTE COUNT” value [4] was 14.37 x10E3/uL, the LYMPHOCYTE [4] was 92.67% and the “MEAN CORPUSCULAR HEMOGLOBIN” value [4] was 23.37 pg. For the same molecule, the “MEAN CORPUSCULAR HEMOGLOBIN CONCENTRATION” value [4] was 37.67 G/DL, the “MEAN CORPUSCULAR VOLUME” value [4] was 62.2 fL and the MONOCYTE [4] was 0%. For the same molecule, the NEUTROPHIL [4] was 6%, the “NUCLEATED RED BLOOD CELLS” value [4] was 0 /100WBC and the “PLATELET COUNT” value [4] was 1258.33 x10E3/uL. For the same molecule, the “ALANINE AMINOTRANSFERASE” value [4] was 44.67 u/L, the ALBUMIN [4] was 3.9 G/DL and the “ALKALINE PHOSPHATASE” value [4] was 343 u/L. The “ASPARTATE AMINOTRANSFERASE” value [4] was 80 u/L, the “BLOOD UREA NITROGEN” value [4] was 16.33 mg/dL and the “CARBON DIOXIDE” value [4] was 25.33 mmol/L. For the same molecule, the CHLORIDE [4] was 103.67 MEQ/L, the CHOLESTEROL [4] was 74 mg/dL and the “CREATINE PHOSPHOKINASE” value [4] was 262 u/L. For the same molecule, the CREATININE [4] was 0.21 mg/dL, the GLUCOSE [4] was 152.33 mg/dL and the “LACTATE DEHYDROGENASE” value [4] was 268.33 u/L. The LIPASE [4] was 8 u/L, the PHOSPHORUS [4] was 13 mg/dL and the POTASSIUM [4] was 6.63 MEQ/L. For the same molecule, the SODIUM [4] was 146.2 MEQ/L, the “TOTAL BILIRUBIN” value [4] was 0.13 mg/dL and the “TOTAL PROTEIN” value [4] was 5.7 G/DL. The “URIC ACID” value [4] was 1.47 mg/dL.

— ChEMBL document CHEMBL3885881, “DrugMatrix”
